Assay results published in patent US7417048B2, “Aryl-substituted derivatives of cycloalkyl and branched chain alkyl carboxylic acids useful as antinociceptive drugs for peripheral targets” (priority 2003, dated 2008).

Legend:
[1] = system: lips and nasal mucous membranes; assay: Cooling effect of suspension applied to lips and nasal mucous membranes; format: in vivo, human; conditions: for cooling effect on the lips and on breathing sensation: 20 mg/ml suspension in saline-10% Tween 80, lips and nasal mucous membranes
Text: Sulfadiazine is used as antibiotic for urinary tract infections and its silver salt is also used a topical antibiotic for the treatment of burn wounds. One peripheral antinociceptive compound of this discovery is derived from sulfadiazine as the -ZR″ group, and has the structure illustrated by Formula 3. […] The embodiment, coded as CPS-125, also activated the TRP-M8 coolness receptor, but not TRP-A1. […] Sulfonamides are used as topical and systemic antibiotics. Generally, these drugs are used at doses of 500 mg to gram quantities, and have relatively low toxic side effects except for the risks of renal crystalluria and drug hypersensitivity reactions. […] (St. Louis, Mo.) and coupled to p-menthoyl chloride, using the chemical synthesis described above. Each compound was then tested at 20 mg/ml on the lips and nasal mucous membranes. The compounds were added to sterile saline-10% Tween 80 mixture and stirred using a glass rod until the mixture was a homogeneous suspension. Using a clean glass rod, the suspension was first applied to the lips and nasal vestibule. After this trial, a dropper was used to apply the suspension into the nostrils, at a volume of 0.06 ml in 2 droplets per nostril.

human TRP-M8 receptor = biological target: T1, human TRP-M8 receptor (Homo sapiens, UniProt Q7Z2W7); assay: Fura-2 calcium fluorescence in HEK cells permanently transfected with human TRP-M8; format: cell-based
T1 construct: expressed in transfected cells; host or cells: human embryonic kidney cells (permanent transfection)
Protocol: Human embryonic kidney cells were permanently transfected with the gene for the human TRP-M8 receptor. These cells were then incubated with a calcium fluorescence indicator (Fura-2) and incubated at either 29 or 37° C. These cells were then distributed into a 96-well fluorescence-plate image reader with automated drug dilution and computerized software for dose-response analysis. The influx of calcium upon drug stimulated was quantified in fluorescence units.

TRP-M8 coolness receptor = TRP-M8 coolness receptor (Homo sapiens, UniProt Q7Z2W7); assay: TRP-M8 coolness receptor activation (summary statement); format: cell-based
Protocol: (§1) Human embryonic kidney cells were transiently transfected with the gene for the mouse TRP-M8 receptor. These cells were then voltage patch-clamped in a standard microscopic apparatus and the test solution electronically applied for 10 sec. The integrated areas of the inward current, measured in picoAmperes were then recorded. Icilin a standard cooling antinociceptive agent was used the positive control. Test substances were applied at 1 μM to at least 4 cells and the current recorded.
Human embryonic kidney cells were permanently transfected with the gene for the human TRP-M8 receptor. These cells were then incubated with a calcium fluorescence indicator (Fura-2) and incubated at either 29 or 37° C. These cells were then distributed into a 96-well fluorescence-plate image reader with automated drug dilution and computerized software for dose-response analysis. The influx of calcium upon drug stimulated was quantified in fluorescence units. […] The EC50 of CPS-125 in this test system was 6 μM and for the sulfodimethoxinyl- derivative, it was 60 μM.

TRP-A1 = TRP-A1 (Homo sapiens, UniProt O75762); assay: TRP-A1 activation; format: cell-based
mouse TRP-M8 receptor = biological target: T2, mouse TRP-M8 receptor (Mus musculus, UniProt Q8R4D5); assay: Voltage patch-clamp of HEK cells transiently transfected with mouse TRP-M8; format: cell-based; conditions: for activity relative to icilin (integrated inward current, icilin as 100): 1 μM, applied 10 sec, at least 4 cells
T2 construct: expressed in transfected cells; host or cells: human embryonic kidney cells (transient transfection)
Protocol: as §1

[2] = cited from earlier work

T2 sequence (Q8R4D5 whole entry): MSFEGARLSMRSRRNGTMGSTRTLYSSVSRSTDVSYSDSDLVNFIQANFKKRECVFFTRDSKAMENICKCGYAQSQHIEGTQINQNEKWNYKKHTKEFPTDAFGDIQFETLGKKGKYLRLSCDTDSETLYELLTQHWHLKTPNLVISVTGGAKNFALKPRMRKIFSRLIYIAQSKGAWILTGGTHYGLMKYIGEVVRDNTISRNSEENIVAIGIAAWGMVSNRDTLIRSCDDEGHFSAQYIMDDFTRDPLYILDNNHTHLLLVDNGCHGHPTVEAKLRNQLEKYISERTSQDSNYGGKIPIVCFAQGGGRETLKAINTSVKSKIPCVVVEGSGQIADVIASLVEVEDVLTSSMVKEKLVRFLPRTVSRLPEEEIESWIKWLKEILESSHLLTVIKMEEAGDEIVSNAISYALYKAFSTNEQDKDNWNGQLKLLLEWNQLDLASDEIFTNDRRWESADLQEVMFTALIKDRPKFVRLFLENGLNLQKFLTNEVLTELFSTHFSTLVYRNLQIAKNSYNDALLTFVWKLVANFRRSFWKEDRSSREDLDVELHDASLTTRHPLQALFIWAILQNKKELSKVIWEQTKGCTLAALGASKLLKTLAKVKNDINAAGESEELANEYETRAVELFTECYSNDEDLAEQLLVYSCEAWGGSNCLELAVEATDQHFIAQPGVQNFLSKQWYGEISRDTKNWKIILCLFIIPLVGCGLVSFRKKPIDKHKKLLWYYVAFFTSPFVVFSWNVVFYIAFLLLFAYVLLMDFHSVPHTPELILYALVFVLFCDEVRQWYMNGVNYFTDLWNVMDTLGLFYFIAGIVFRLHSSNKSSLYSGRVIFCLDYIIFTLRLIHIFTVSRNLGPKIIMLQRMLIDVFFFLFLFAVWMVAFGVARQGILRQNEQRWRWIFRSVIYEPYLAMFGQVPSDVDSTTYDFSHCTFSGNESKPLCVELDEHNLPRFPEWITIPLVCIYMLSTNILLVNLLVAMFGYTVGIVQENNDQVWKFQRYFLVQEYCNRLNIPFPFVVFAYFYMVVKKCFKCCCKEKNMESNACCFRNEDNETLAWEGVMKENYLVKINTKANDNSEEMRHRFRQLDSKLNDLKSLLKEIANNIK
T1 sequence (Q7Z2W7 whole entry): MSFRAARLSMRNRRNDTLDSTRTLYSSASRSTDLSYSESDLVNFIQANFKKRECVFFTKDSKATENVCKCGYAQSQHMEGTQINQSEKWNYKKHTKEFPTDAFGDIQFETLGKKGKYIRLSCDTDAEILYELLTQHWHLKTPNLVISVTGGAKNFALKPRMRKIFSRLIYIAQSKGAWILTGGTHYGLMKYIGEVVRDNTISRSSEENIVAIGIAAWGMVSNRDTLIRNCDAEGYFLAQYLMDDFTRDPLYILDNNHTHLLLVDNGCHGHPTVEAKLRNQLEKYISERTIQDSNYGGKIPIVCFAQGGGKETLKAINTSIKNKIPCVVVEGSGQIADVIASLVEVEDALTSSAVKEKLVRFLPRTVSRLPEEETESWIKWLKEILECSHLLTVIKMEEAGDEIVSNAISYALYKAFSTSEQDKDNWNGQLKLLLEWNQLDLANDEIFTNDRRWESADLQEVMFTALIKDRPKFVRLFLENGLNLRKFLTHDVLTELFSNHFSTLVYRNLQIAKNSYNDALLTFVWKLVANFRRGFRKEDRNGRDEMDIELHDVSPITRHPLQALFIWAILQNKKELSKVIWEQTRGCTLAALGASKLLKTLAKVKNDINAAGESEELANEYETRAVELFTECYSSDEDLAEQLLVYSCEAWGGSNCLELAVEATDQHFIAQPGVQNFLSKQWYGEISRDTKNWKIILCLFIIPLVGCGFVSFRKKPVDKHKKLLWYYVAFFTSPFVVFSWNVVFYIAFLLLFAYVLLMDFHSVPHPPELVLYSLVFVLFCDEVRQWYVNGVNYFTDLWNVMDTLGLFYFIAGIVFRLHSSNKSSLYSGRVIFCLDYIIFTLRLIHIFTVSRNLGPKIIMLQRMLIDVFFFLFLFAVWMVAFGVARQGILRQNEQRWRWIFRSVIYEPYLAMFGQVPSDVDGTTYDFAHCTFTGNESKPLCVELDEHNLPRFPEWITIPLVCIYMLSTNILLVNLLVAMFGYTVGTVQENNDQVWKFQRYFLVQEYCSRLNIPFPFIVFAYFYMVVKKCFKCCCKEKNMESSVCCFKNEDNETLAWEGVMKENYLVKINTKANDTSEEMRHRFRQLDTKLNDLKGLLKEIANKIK
Chain of TRP-A1 (O75762 whole entry, species assumed): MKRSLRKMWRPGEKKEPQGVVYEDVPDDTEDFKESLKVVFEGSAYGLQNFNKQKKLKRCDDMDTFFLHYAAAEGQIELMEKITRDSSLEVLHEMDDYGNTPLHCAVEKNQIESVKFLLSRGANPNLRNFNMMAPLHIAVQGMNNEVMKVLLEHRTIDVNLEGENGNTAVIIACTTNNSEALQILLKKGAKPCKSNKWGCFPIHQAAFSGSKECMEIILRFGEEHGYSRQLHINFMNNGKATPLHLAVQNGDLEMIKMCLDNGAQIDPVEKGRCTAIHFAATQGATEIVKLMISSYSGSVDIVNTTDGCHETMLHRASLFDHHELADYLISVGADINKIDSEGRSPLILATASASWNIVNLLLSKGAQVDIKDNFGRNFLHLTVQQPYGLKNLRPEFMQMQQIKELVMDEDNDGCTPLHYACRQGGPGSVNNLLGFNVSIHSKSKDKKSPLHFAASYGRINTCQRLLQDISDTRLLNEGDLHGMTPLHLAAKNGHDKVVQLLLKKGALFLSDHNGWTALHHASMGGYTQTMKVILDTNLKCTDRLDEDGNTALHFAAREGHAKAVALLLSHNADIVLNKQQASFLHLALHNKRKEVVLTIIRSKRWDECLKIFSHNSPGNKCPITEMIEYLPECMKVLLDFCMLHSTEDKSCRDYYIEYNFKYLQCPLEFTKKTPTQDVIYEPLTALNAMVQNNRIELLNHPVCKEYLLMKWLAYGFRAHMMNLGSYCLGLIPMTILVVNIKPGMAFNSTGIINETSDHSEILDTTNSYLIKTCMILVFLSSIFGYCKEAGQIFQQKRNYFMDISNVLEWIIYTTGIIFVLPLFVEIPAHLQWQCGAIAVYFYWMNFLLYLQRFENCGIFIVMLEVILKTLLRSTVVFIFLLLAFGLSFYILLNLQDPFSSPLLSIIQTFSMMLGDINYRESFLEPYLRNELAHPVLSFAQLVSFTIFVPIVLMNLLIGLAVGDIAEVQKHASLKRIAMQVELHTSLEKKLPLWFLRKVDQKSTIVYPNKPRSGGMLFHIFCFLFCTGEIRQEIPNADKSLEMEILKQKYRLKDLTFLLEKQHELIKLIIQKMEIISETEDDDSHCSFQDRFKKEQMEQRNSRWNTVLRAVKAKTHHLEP
Chain of TRP-M8 coolness receptor (Q7Z2W7 whole entry): as the sequence (Q7Z2W7 whole entry) above

| SMILES | cooling effect on the lips and on breathing sensation [1] | pKa [2] | further results |
| --- | --- | --- | --- |
| CC1CCC(C(C)C)C(C(=O)Nc2ccc(S(=O)(=O)Nc3ncccn3)cc2)C1 (stereo not shown) [CPS-125, 2-Isopropyl-5-methyl-cyclohexanecarboxylic acid [4-(pyrimidin-2-ylsulfamoyl)-phenyl]-amide] | gentle, cooling refreshing effect | – | duration of cooling effect ([1]; 1 mg per nostril, 0.06 ml in 2 droplets per nostril): up to 3 hr; ΔFmax (maximum fluorescence increase at the maximum concentration tested) (human TRP-M8 receptor; Fura-2 fluorescence units): 14,000 units; activation of TRP-M8 coolness receptor (TRP-M8 coolness receptor): activated; activation of TRP-A1 (TRP-A1): not; activity relative to icilin (integrated inward current, icilin as 100) (mouse TRP-M8 receptor): 41%; EC50 (mouse TRP-M8 receptor; patch-clamp dose-response, read-out: EC50 for full activation of the receptor): 2 µM |
| CC1CCC(C(C)C)C(C(=O)Nc2ccc(S(N)(=O)=O)cc2)C1 (stereo not shown) [CPS-126] | inactive | – | activity relative to icilin (integrated inward current, icilin as 100) (mouse TRP-M8 receptor): 2% |
| Nc1ccc(S(=O)(=O)NC(=O)CCl)cc1 [N1-chloroacetylsulfanilamide] | – | 3.79 | – |
| Nc1ccc(C(=O)NS(=O)(=O)c2ccc(N)cc2)cc1 [N1-p-aminobenzoylsulfanilamide] | – | 5.20 | – |
| Nc1ccc(S(=O)(=O)Nc2nncs2)cc1 [S-1,3,4-thiadiazole] | – | 4.77 | – |
| COc1cc(NS(=O)(=O)c2ccc(NC(=O)C3CC(C)CCC3C(C)C)cc2)nc(OC)n1 (stereo not shown) [sulfadimethoxine analog] | slightly active | – | EC50 (human TRP-M8 receptor; Fura-2, 29 or 37° C., 96-well plate reader, read-out: EC50 (median effective concentration, calcium influx)): 60 µM |
| COc1cnc(NS(=O)(=O)c2ccc(NC(=O)C3CC(C)CCC3C(C)C)cc2)nc1 (stereo not shown) [sulfameter analog] | moderate activities | – | – |
| COc1ccc(NS(=O)(=O)c2ccc(NC(=O)C3CC(C)CCC3C(C)C)cc2)nn1 (stereo not shown) [sulfamethoxypyridazine analog] | moderate activities | – | – |
| Nc1ccc(S(=O)(=O)Nc2ccccn2)cc1 [sulfapyridine] | – | 8.43 | – |
| Nc1ccc(S(=O)(=O)Nc2nccs2)cc1 [sulfathiazole] | – | 7.12 | – |
| Cc1noc(NS(=O)(=O)c2ccc(NC(=O)C3CC(C)CCC3C(C)C)cc2)c1C (stereo not shown) [sulfisoxazole analog] | slightly active | – | – |
